Reference: patent US6858650B1, “Stable salts of novel derivatives of 3,3-diphenylpropylamines” (Schwarz Pharma AG, priority 1999, dated 2005)

Columns and labels:
[1] = Stability of the solid salt / on storage; assay type: physicochemical
[2] = Hygroscopicity of the solid salt; assay type: physicochemical

CC(C)C(=O)Oc1ccc(CO)cc1C(CCN(C(C)C)C(C)C)c1ccccc1.Cl (stereo not drawn) [2b, R-(+)-2-(3-diisopropylamino-1-phenylpropyl)-4-hydroxymethylphenyl-isobutyrate ester hydrochloride hydrate]
stability ([1]; hydrate-containing product from humid solvent with at least one mole equivalent of water): stable | hygroscopicity ([2]; anhydrous product crystallised from isobutyrate chloride solution): very hygroscopic

CC(C)C(=O)Oc1ccc(CO)cc1C(CCN(C(C)C)C(C)C)c1ccccc1.O=C(O)/C=C/C(=O)O (stereo not drawn) [2a, R-(+)-2-(3-diisopropylamino-1-phenylpropyl)-4-hydroxymethylphenyl-isobutyrate ester hydrogen fumarate]
stability ([1]; crystalline hydrogen fumarate salt, at RT): stable at RT | hygroscopicity ([2]; crystalline hydrogen fumarate salt): non-hygroscopic
